In patent publication US10047086B2, “Imidazopyridines and imidazopyrazines as LSD1 inhibitors” (Incyte Corporation, priority 2014, dated 2018):

Molecular target: LSD-1 enzyme (Homo sapiens (Human), UniProt O60341)
Assay: LANCE LSD1/KDM1A demethylase assay (LSD1 histone demethylase biochemical assay)
Settings: 1 nM LSD-1 enzyme, 1 hour preincubation at 25° C., 0.4 μM Biotin-labeled Histone H3 peptide substrate
Protocol: LSD1 Histone Demethylase Biochemical Assay
LANCE LSD1/KDM1A demethylase assay-10 μL of 1 nM LSD-1 enzyme (ENZO BML-SE544-0050) in the assay buffer (50 mM Tris, pH 7.5, 0.01% Tween-20, 25 mM NaCl, 5 mM DTT) were preincubated for 1 hour at 25° C. with 0.8 μL compound/DMSO dotted in black 384 well polystyrene plates. […] Reactions were stopped by addition of 10 μL 1× LANCE Detection Buffer (PerkinElmer CR97-100) supplemented with 1.5 nM Eu-anti-unmodified H3K4 Antibody (PerkinElmer TRF0404), and 225 nM LANCE Ultra Streptavidin (PerkinElmer TRF102) along with 0.9 mM Tranylcypromine-HCl (Millipore 616431). After stopping the reactions plates were incubated for 30 minutes and read on a PHERAstar FS plate reader (BMG Labtech).

For Cc1ccc(-c2c(-c3ccc(C#N)cc3)nc(OC[C@@H]3CCCN(C)C3)c3cncn23)cc1CO [Example 42, 4-(5-[3-(hydroxymethyl)-4-methylphenyl]-8-{[(3R)-1-methylpiperidin-3-yl]methoxy}imidazo[1,5-a]pyrazin-6-yl)benzonitrile], the IC50 was no more than 50 nM.

Molecule COCCN1CCC[C@@H](COc2cc(-c3ccc(C#N)cc3)c(-c3cnc4ccoc4c3)n3cncc23)C1 [Example 121, 4-(5-furo[3,2-b]pyridin-6-yl-8-{[(3R)-1-(2-methoxyethyl)piperidin-3-yl]methoxy}imidazo[1,5-a]pyridin-6-yl)benzonitrile] has an IC50 of no more than 50 nM.

Molecule CN1C(=O)CCc2cc(-c3c(-c4ccc(C#N)cc4)nc(N4CCC(N(C)C)CC4)c4cncn34)ccc21 [Example 137, 4-[8-[4-(dimethylamino)piperidin-1-yl]-5-(1-methyl-2-oxo-1,2,3,4-tetrahydroquinolin-6-yl)imidazo[1,5-a]pyrazin-6-yl]benzonitrile] has an IC50 of no more than 50 nM.

COc1ncc(-c2c(-c3ccc(C#N)cc3)nc(N3CCC(N(C)C)CC3)c3cncn23)cc1F [Example 90, 4-[8-[4-(dimethylamino)piperidin-1-yl]-5-(5-fluoro-6-methoxypyridin-3-yl)imidazo[1,5-a]pyrazin-6-yl]benzonitrile] gave an IC50 of no more than 50 nM.

CN1CCOc2ccc(-c3c(-c4ccc(C#N)cc4)cc(OC[C@@H]4CCNC4)c4cncn34)cc21 [Example 15, 4-{5-(4-methyl-3,4-dihydro-2H-1,4-benzoxazin-6-yl)-8-[(3R)-pyrrolidin-3-ylmethoxy]imidazo[1,5-a]pyridin-6-yl}benzonitrile] showed an IC50 of no more than 50 nM.

In the case of Cc1ccc(-c2c(-c3ccc(C#N)cc3)cc(OC[C@@H]3CCNC3)c3cncn23)c(F)c1 [Example 8, 4-{5-(2-fluoro-4-methylphenyl)-8-[(3R)-pyrrolidin-3-ylmethoxy]imidazo[1,5-a]pyridin-6-yl}benzonitrile], the IC50 is reported as no more than 50 nM.

In the case of CN(C)[C@H]1CCN(c2nc(-c3ccc(C#N)cc3)c(-c3cc4oc(=O)n(C)c4cc3F)n3cncc23)C1 [Example 113, 4-[8-[(3S)-3-(dimethylamino)pyrrolidin-1-yl]-5-(5-fluoro-3-methyl-2-oxo-2,3-dihydro-1,3-benzoxazol-6-yl)imidazo[1,5-a]pyrazin-6-yl]benzonitrile], the IC50 is reported as no more than 50 nM.

For COCCN1CCC[C@@H](COc2cc(-c3ccc(C#N)cc3)c(-c3cnc(C)c(C)c3)n3cncc23)C1 [Example 130, 4-(5-(5,6-dimethylpyridin-3-yl)-8-{[(3R)-1-(2-methoxyethyl)piperidin-3-yl]methoxy}imidazo[1,5-a]pyridin-6-yl)benzonitrile], the IC50 was no more than 50 nM.

N#Cc1ccc(-c2cc(OC[C@@H]3CCNC3)c3cncn3c2-c2ccc3c(c2)OCCO3)cc1 [Example 16, 4-{5-(2,3-dihydro-1,4-benzodioxin-6-yl)-8-[(3R)-pyrrolidin-3-ylmethoxy]imidazo[1,5-a]pyridin-6-yl}benzonitrile] showed an IC50 of no more than 50 nM.

COc1ncc(-c2c(-c3ccc(C#N)cc3)cc(OC[C@@H]3CCCN(C)C3)c3cncn23)cc1F [Example 70, (R)-4-(5-(5-fluoro-6-methoxypyridin-3-yl)-8-((1-methylpiperidin-3-yl)methoxy)imidazo[1,5-a]pyridin-6-yl)benzonitrile] gave an IC50 of no more than 50 nM.

Work on CN1CCC[C@@H](COc2cc(-c3ccc(C#N)cc3)c(-c3ccc(C(C)(C)O)cc3)n3cncc23)C1 [Example 77, 4-(5-[4-(1-hydroxy-1-methylethyl)phenyl]-8-{[(3R)-1-methylpiperidin-3-yl]methoxy}imidazo[1,5-a]pyridin-6-yl)benzonitrile] yielded an IC50 of no more than 50 nM.

Cc1ccc(-c2c(-c3ccc(C#N)cc3)nc(N3CCC(N(C)C)CC3)c3cncn23)cc1CO [Example 91, 4-{8-[4-(dimethylamino)piperidin-1-yl]-5-[3-(hydroxymethyl)-4-methylphenyl]imidazo[1,5-a]pyrazin-6-yl}benzonitrile] was tested, and the IC50 was no more than 50 nM.

CN1CCC[C@@H](COc2cc(-c3ccc(C#N)cc3)c(-c3cc(F)c(CO)c(F)c3)n3cncc23)C1 [Example 73, (R)-4-(5-(3,5-difluoro-4-(hydroxymethyl)phenyl)-8-((1-methylpiperidin-3-yl)methoxy)imidazo[1,5-a]pyridin-6-yl)benzonitrile] was tested, and the IC50 was no more than 50 nM.

Molecule CN(C)C1CCN(c2nc(-c3ccc(C#N)cc3)c(-c3ccc(OC(F)F)nc3)n3cncc23)CC1 [Example 98, 4-{5-[6-(difluoromethoxy)pyridin-3-yl]-8-[4-(dimethylamino)piperidin-1-yl]imidazo[1,5-a]pyrazin-6-yl}benzonitrile] has an IC50 of no more than 50 nM.

Cc1cc(-c2c(-c3ccc(C#N)cc3)nc(OC[C@@H]3CCCN(C)C3)c3cncn23)ccc1CO [Example 45, 4-(5-[4-(hydroxymethyl)-3-methylphenyl]-8-{[(3R)-1-methylpiperidin-3-yl]methoxy}imidazo[1,5-a]pyrazin-6-yl)benzonitrile] gave an IC50 of no more than 50 nM.

Cc1cc(-c2c(-c3ccc(C#N)cc3)nc(N3CCC(N(C)C)CC3)c3cncn23)ccc1CO [Example 149, 4-{8-[4-(dimethylamino)piperidin-1-yl]-5-[4-(hydroxymethyl)-3-methylphenyl]imidazo[1,5-a]pyrazin-6-yl}benzonitrile] was tested, and the IC50 was no more than 50 nM.

With COc1ccc(-c2c(-c3ccc(C#N)cc3)nc(N3CCC(N(C)C)CC3)c3cncn23)cn1 [Example 53, 4-[8-[4-(dimethylamino)piperidin-1-yl]-5-(6-methoxypyridin-3-yl)imidazo[1,5-a]pyrazin-6-yl]benzonitrile] the IC50 was no more than 50 nM.

COc1ncc(-c2c(-c3ccc(C#N)cc3)nc(OC[C@@H]3CCCN(C)C3)c3cncn23)cc1F [Example 43, 4-(5-(5-fluoro-6-methoxypyridin-3-yl)-8-{[(3R)-1-methylpiperidin-3-yl]methoxy}imidazo[1,5-a]pyrazin-6-yl)benzonitrile] was tested, and the IC50 was no more than 50 nM.

Cn1ncc2cc(-c3c(-c4ccc(C#N)cc4)cc(OC[C@@H]4CCNC4)c4cncn34)ccc21 [Example 11, 4-{5-(1-methyl-1H-indazol-5-yl)-8-[(3R)-pyrrolidin-3-ylmethoxy]imidazo[1,5-a]pyridin-6-yl}benzonitrile] was tested, and the IC50 was no more than 50 nM.

In the case of CN(C)C1CCN(c2nc(-c3ccc(C#N)cc3)c(-c3cnc4ccccc4c3)n3cncc23)CC1 [Example 144, 4-{8-[4-(dimethylamino)piperidin-1-yl]-5-quinolin-3-ylimidazo[1,5-a]pyrazin-6-yl}benzonitrile], the IC50 is reported as no more than 50 nM.

Molecule Cc1ncc(-c2c(-c3ccc(C#N)cc3)nc(N3CCC(N(C)C)CC3)c3cncn23)cc1F [Example 97, 4-[8-[4-(dimethylamino)piperidin-1-yl]-5-(5-fluoro-6-methylpyridin-3-yl)imidazo[1,5-a]pyrazin-6-yl]benzonitrile] has an IC50 of no more than 50 nM.

CC(O)c1ccc(-c2c(-c3ccc(C#N)cc3)cc(OC[C@@H]3CCCN(C)C3)c3cncn23)cc1 (stereo partly drawn) [Example 123, 4-(5-[4-(1-hydroxyethyl)phenyl]-8-{[(3R)-1-methylpiperidin-3-yl]methoxy}imidazo[1,5-a]pyridin-6-yl)benzonitrile] gave an IC50 of no more than 50 nM.

For CN1CCC[C@@H](COc2nc(-c3ccc(C#N)cc3)c(-c3cnc4c(c3)OCCN4C)n3cncc23)C1 [Example 29, 4-(5-(4-methyl-3,4-dihydro-2H-pyrido[3,2-b][1,4]oxazin-7-yl)-8-{[(3R)-1-methylpiperidin-3-yl]methoxy}imidazo[1,5-a]pyrazin-6-yl)benzonitrile], the IC50 was no more than 50 nM.

Molecule CN(C)C1CCN(c2nc(-c3ccc(C#N)cc3)c(-c3cnc4c(c3)ncn4C)n3cncc23)CC1 [Example 107, 4-[8-[4-(dimethylamino)piperidin-1-yl]-5-(3-methyl-3H-imidazo[4,5-b]pyridin-6-yl)imidazo[1,5-a]pyrazin-6-yl]benzonitrile] has an IC50 of no more than 50 nM.

Molecule Cc1cc(-c2c(-c3ccc(C#N)cc3)nc(N3CCC(N(C)C)CC3)c3cncn23)cnc1C [Example 89, 4-[8-[4-(dimethylamino)piperidin-1-yl]-5-(5,6-dimethylpyridin-3-yl)imidazo[1,5-a]pyrazin-6-yl]benzonitrile] has an IC50 of no more than 50 nM.

With CCN1CCC[C@@H](COc2cc(-c3ccc(C#N)cc3)c(-c3ccc4c(c3)CC(=O)N4C)n3cncc23)C1 [Example 114, (R)-4-(8-((1-ethylpiperidin-3-yl)methoxy)-5-(1-methyl-2-oxoindolin-5-yl)imidazo[1,5-a]pyridin-6-yl)benzonitrile] the IC50 was no more than 50 nM.

With CN1CCC[C@@H](COc2nc(-c3ccc(C#N)cc3)c(-c3cnc4c(ccn4C)c3)n3cncc23)C1 [Example 85, 4-[8-{[(3R)-1-methylpiperidin-3-yl]methoxy}-5-(1-methyl-1H-pyrrolo[2,3-b]pyridin-5-yl)imidazo[1,5-a]pyrazin-6-yl]benzonitrile] the IC50 was no more than 50 nM.

Molecule CN1CCC[C@@H](COc2cc(-c3ccc(C#N)cc3)c(-c3ccc(CN(C)C(=O)N(C)C)c(F)c3)n3cncc23)C1 [Example 82, N-[4-(6-(4-cyanophenyl)-8-{[(3R)-1-methylpiperidin-3-yl]methoxy}imidazo[1,5-a]pyridin-5-yl)-2-fluorobenzyl]-N,N′,N′-trimethylurea] has an IC50 of no more than 50 nM.

CN1CCN(Cc2ccc(-c3c(-c4ccc(C#N)cc4)cc(OC[C@@H]4CCNC4)c4cncn34)cc2)CC1 [Example 19, 4-{5-{4-[(4-methylpiperazin-1-yl)methyl]phenyl}-8-[(3R)-pyrrolidin-3-ylmethoxy]imidazo-[1,5-a]pyridin-6-yl}benzonitrile] was tested, and the IC50 was no more than 50 nM.

CN1CCC[C@@H](COc2nc(-c3ccc(C#N)cc3)c(-c3ccc4c(c3)ncn4C)n3cncc23)C1 [Example 28, 4-(5-(1-methyl-1H-benzimidazol-5-yl)-8-{[(3R)-1-methylpiperidin-3-yl]methoxy}imidazo[1,5-a]pyrazin-6-yl)benzonitrile] was tested, and the IC50 was no more than 50 nM.
